In US20250011351A1, “[…] O-ACETYLPSILOCIN, SALTS AND SOLID STATE FORMS THEREOF” (Terran Biosciences Inc., priority 2021, published 2025):
“Also recorded” adds a separate entry of the source.

Tests used:
[1] = Dynamic vapor sorption (DVS) analysis with XRPD of the post-DVS specimen; format: physicochemical; details: for hygroscopicity (in words): DVS at 25° C., RH range given with the value; for hydrate formation: hysteresis of the DVS curve; for solid form of the post-DVS specimen: XRPD after the DVS experiment (5 to 95% RH and back); for overall water uptake: range between 5-95% RH
Procedure: (§1) DVS analysis was carried out using a TA Instruments Q5000 Dynamic Vapor Sorption analyzer. The instrument was calibrated with standard weights and a sodium bromide standard for humidity. Approximately 10-25 mg of sample was loaded into a metal-coated quartz pan for analysis. The sample was analyzed at 25° C. with a maximum equilibration time of one hour in 10% relative humidity (RH) steps from 5 to 95% RH (adsorption cycle) and from 95 to 5% RH (desorption cycle). The movement from one step to the next occurred either after satisfying the equilibrium criterion of 0.01% weight change or, if the equilibrium criterion was not met, after one hour. The percent weight change values were calculated using Microsoft Excel®.
as §1, with “Dynamic Vapor Sorption (DVS)” for “DVS”, “is” for “was”, “is” for “were”, “Excel.” for “Excel®.”

[2] = Estimated solubility by adding solvent in aliquots to weighed solid, dissolution judged by visual inspection; details: for Estimated Solubilities / Solubility: room temperature
5-HT2A receptors = target: T1, 5-HT2A receptors (Mus musculus, UniProt P35363); assay: Psilocybin-induced head-twitch response in mice, antagonist given i.v. 7 min after psilocybin; format: in vivo, C57BL/6J mice; details: for effect on psilocybin-induced head-twitch response: cumulative head twitches until 40 min, groups of 3 mice; for effect on psilocybin-induced head twitch, summary of Examples 13-21: antagonist administered after psilocybin, compared to vehicle-treated mice, dose not restated; for Result (suppression of psilocybin-induced head twitch): 5HT2A antagonist i.v. at T=7 min
T1 construct: from tissue; host or cells: whole living C57BL/6J mice (in vivo behavioural assay)
Excerpt: The head-shake response is elicited by a wide variety of known hallucinogens such as LSD, psilocybin, psilocin, N,N-dimethyltryptamine (DMT), and mescaline as well as serotonin-releasing agents and direct 5-HT2 agonists. […] Later studies have confirmed 5-HT2A receptors are the primary, direct mediators of the response and that the headshake response in rats is essentially the same as head-twitches in mice, at least in regards to similarity in appearance and 5-HT2A receptor dependence.
Male C57BL/6J mice (approximately 25 g) were group housed. Animals were maintained under a 12 h light/dark cycle, at 23° C. with humidity controlled.
(§2) At T=−60 min, C57BL/6J mice were individually housed into transparent observation cages with bedding removed and left to habituate. At T=−3 min, mice were placed into heated cages at 40° C. At T=0 h, groups of 3 mice were dosed intraperitoneally with psilocybin (2 mg/kg). Following dosing, mice were replaced into the heated cages and head-twitch responses continuously scored for 7 min. After 7 min, mice were intravenously dosed via the lateral tail vein with either vehicle 1 (saline) or volinanserin 1 mg/kg in 5 mL/kg dosing volumes. Mice were replaced into the observation cages and head twitch behavior were monitored until 40 min after agonist dosing. Cumulative head-twitches were measured every 2 minutes until 40 minutes after agonist dosing.
as §2, with “min. […]” for “min. After 7 min, mice were intravenously dosed via the lateral tail vein with either vehicle 1 (saline) or volinanserin 1 mg/kg in 5 mL/kg dosing volumes.”, “behavior was” for “behavior were”, “Cumulative head-twitch behavior was” for “Cumulative head-twitches were”
as §2, with “min. […]” for “min. After 7 min, mice were intravenously dosed via the lateral tail vein with either vehicle 1 (saline) or volinanserin 1 mg/kg in 5 mL/kg dosing volumes.”, “behavior was” for “behavior were”, “Cumulative head-twitch behavior was” for “Cumulative head-twitches were”
as §2, with “min. […]” for “min. After 7 min, mice were intravenously dosed via the lateral tail vein with either vehicle 1 (saline) or volinanserin 1 mg/kg in 5 mL/kg dosing volumes.”, “behavior was” for “behavior were”, “Cumulative head-twitch behavior was” for “Cumulative head-twitches were”
as §2, with “min. […]” for “min. After 7 min, mice were intravenously dosed via the lateral tail vein with either vehicle 1 (saline) or volinanserin 1 mg/kg in 5 mL/kg dosing volumes.”, “behavior was” for “behavior were”, “Cumulative head-twitch behavior was” for “Cumulative head-twitches were”
At T=−60 min, C57BL/6J mice were individually housed into transparent observation cages with bedding removed and left to habituate.

[3] = antagonist 1 mg/kg i.v. 7 min after psilocybin 2 mg/kg i.p.
[4] = antagonist 4 mg/kg i.v. 7 min after psilocybin 2 mg/kg i.p.
[5] = psilocybin 2 mg/kg i.p., head twitches scored to 40 min

T1 sequence (P35363 whole entry): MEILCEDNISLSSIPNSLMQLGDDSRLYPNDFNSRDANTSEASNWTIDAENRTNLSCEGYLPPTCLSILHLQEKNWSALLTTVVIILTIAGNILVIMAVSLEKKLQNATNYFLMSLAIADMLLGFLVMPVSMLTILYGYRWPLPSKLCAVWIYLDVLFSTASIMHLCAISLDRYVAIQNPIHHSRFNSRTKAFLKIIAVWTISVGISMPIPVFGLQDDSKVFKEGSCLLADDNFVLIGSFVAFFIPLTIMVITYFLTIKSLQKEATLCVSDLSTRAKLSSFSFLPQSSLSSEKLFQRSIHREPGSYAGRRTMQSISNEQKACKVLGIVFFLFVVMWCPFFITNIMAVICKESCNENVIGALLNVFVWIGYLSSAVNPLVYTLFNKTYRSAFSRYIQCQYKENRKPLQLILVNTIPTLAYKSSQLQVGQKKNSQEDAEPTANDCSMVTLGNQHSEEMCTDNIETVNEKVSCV

CC(=O)Oc1cccc2[nH]cc(CCN(C)C)c12.O=C(O)C[C@H](O)C(=O)O [L-malate salt, Form B, O-Acetyl Psilocin Malate]
hygroscopicity (in words) [1]: non-hygroscopic in the range between 5-85% RH; also recorded: hygroscopic above 850% RH
Water uptake ([1]; DVS, above 85% RH): approx. 4.500%
hydrate formation ([1]; DVS, above 85% RH): no hydrate formation occurred
hydrate formation ([1]; DVS, above 85% RH, listed as Malate B): possible hydrate formation
solid form of the post-DVS specimen [1]: consistent with Form B

CC(=O)Oc1cccc2[nH]cc(CCN(C)C)c12.O=C(O)C(O)C(O)C(=O)O [L-tartrate salt, Form A, O-Acetyl Psilocin Tartrate]
hygroscopicity (in words) [1]: non-hygroscopic in the range from 5-85% RH; also recorded: hygroscopic above 85% RH
Water uptake ([1]; DVS, above 85% RH): approx. 6%
hydrate formation ([1]; DVS, above 85% RH): consistent with hydrate formation
hydrate formation ([1]; DVS, above 85% RH, listed as Tartrate A): possible hydrate formation
solid form of the post-DVS specimen [1]: consistent with Form A by XRPD analysis and exhibited additional diffraction peaks

CC(=O)Oc1cccc2[nH]cc(CCN(C)C)c12.O=C(O)C(O)C(O)C(=O)O [L-tartrate, Form A]
RH above which hygroscopic (DVS) ([1]; DVS): > 85 % RH
RH range in which non-hygroscopic (DVS) ([1]; DVS): 5-85 % RH
hydrate formation upon DVS ([1]; DVS, high RH): resulting in hydrate
water uptake, DVS ([1]; above 85% RH): ~6%

CC(=O)Oc1cccc2[nH]cc(CCN(C)C)c12.O=C(O)CC(O)C(=O)O [Malate Form B]
Water uptake ([1]; 5-85% RH): 0.8%, 5-85% RH;
Water uptake (25-65% RH) % [1]: ~0.3%
Water uptake ([1]; above 85% RH): 4.5% above 85%

CC(=O)Oc1cccc2[nH]cc(CCN(C)C)c12 [O-Acetyl Psilocin Freebase, O-Acetyl Psilocin]
Estimated Solubilities ([2]; 1,4-dioxane): >62
Estimated Solubilities ([2]; 2-methyltetrahydrofuran 2-Me(THF)): >50
Estimated Solubilities ([2]; 2-propanol (2-PrOH)): >32
Estimated Solubilities ([2]; Methyl ethyl ketone (MEK)): >51
Estimated Solubilities ([2]; Methyl tert-butyl ether (MTBE)): >23
Estimated Solubilities ([2]; acetone): >59
Estimated Solubilities ([2]; acetonitrile (ACN)): >67
Estimated Solubilities ([2]; ethanol (EtOH)): >62
Estimated Solubilities ([2]; hexanes): <1
Estimated Solubilities ([2]; methanol (MeOH)): >62
Estimated Solubilities ([2]; toluene): >59
Estimated Solubilities ([2]; water): <1

CC(=O)Oc1cccc2[nH]cc(CCN(C)C)c12.O=C(O)/C=C/C(=O)O [O-acetylpsilocin fumarate Form A, O-acetylpsilocin fumarate]
hygroscopicity (in words) [1]: non-hygroscopic
overall water uptake ([1]; DVS): approx. 0.1%
Solubility ([2]; 1,4-dioxane): <1000 µg/mL
Solubility ([2]; 2-propanol (2-PrOH)): 1000 µg/mL
Solubility ([2]; 50:50 MeOH:water): >33000 µg/mL
Solubility ([2]; 50:50 THF:water): >55000 µg/mL
Solubility ([2]; 70:30 ACN:water): >75000 µg/mL
Solubility ([2]; 70:30 acetone:water): >51000 µg/mL
Solubility ([2]; 95:5 1,4-dioxane:water): 3000 µg/mL
Solubility ([2]; 95:5 ACN:water): 12000 µg/mL
Solubility ([2]; 95:5 EtOH:water): 9000 µg/mL
Solubility ([2]; 95:5 IPA:water): 4000 µg/mL
Solubility ([2]; 95:5 MeOH:water): >26000 µg/mL
Solubility ([2]; 95:5 THF:water): >17000 µg/mL
Solubility ([2]; 95:5 acetone:water): 10000 µg/mL
Solubility ([2]; acetone): <1000 µg/mL
Solubility ([2]; acetonitrile (ACN)): <1000 µg/mL
Solubility ([2]; dichloromethane (DCM)): <1000 µg/mL
Solubility ([2]; ethanol (EtOH)): 2000 µg/mL
Solubility ([2]; ethyl acetate (EtOAc)): <1000 µg/mL
Solubility ([2]; hexanes): <1000 µg/mL
Solubility ([2]; methanol (MeOH)): 2000 µg/mL
Solubility ([2]; tetrahydrofuran (THF)): 1000 µg/mL
Solubility ([2]; toluene): <1000 µg/mL
Solubility ([2]; water): 11000 µg/mL

CC(=O)Oc1cccc2[nH]cc(CCN(C)C)c12.O=C(O)C(O)C(O)C(=O)O [Tartrate Form A]
Water uptake (25-65% RH) % [1]: 0.1%
Water uptake ([1]; 85-95% RH): 5-6% 85-95% RH
RH at which likely hydrate formation is shown ([1]; listed as 'Other forms'): at 95% RH

O=c1[nH]c2ccccc2n1CCN1CCN(c2cccc(C(F)(F)F)c2)CC1 [flibanserin]
effect on psilocybin-induced head-twitch response (5-HT2A receptors; [3]): partially suppressed
effect on psilocybin-induced head-twitch response (5-HT2A receptors; [4]): partially suppressed
effect on psilocybin-induced head twitch, summary of Examples 13-21 (5-HT2A receptors): partial suppression
Result (suppression of psilocybin-induced head twitch) (5-HT2A receptors; [5]): Partial suppression of head twitch

O=C(c1ccc(F)cc1)C1CCN(CCn2c(=O)[nH]c3ccccc3c2=O)CC1 [ketanserin]
effect on psilocybin-induced head-twitch response (5-HT2A receptors; antagonist 2 mg/kg i.v. 7 min after psilocybin 2 mg/kg i.p.): completely suppressed

CC(=O)Oc1cccc2[nH]cc(CCN(C)C)c12.O=C(O)/C=C\C(=O)O [maleate salt, Form A, O-acetyl psilocin maleate]
hygroscopicity (in words) [1]: non-hygroscopic
hygroscopicity (in words) ([1]; listed as maleate salt): minimal water sorption over the RH range
overall water uptake ([1]; DVS): approx. 0.8%
solid form of the post-DVS specimen [1]: consistent with Form A

CC(=O)Oc1cccc2[nH]cc(CCN(C)C)c12.CS(=O)(=O)O [mesylate salt, Form A, O-Acetyl Psilocin Mesylate]
hygroscopicity (in words) [1]: non-hygroscopic in the range from 5-55% RH; also recorded: highly hygroscopic material above 55% RH
Water uptake ([1]; DVS, above 55% RH): 40%
solid form of the post-DVS specimen [1]: a liquid

COc1ccc(NC(=O)Nc2ccc(F)cc2F)cc1-c1c(Br)cnn1C [nelotanserin]
effect on psilocybin-induced head-twitch response (5-HT2A receptors; [3]): partially suppressed
effect on psilocybin-induced head-twitch response (5-HT2A receptors; [4]): completely suppressed; also recorded: completed suppressed
effect on psilocybin-induced head twitch, summary of Examples 13-21 (5-HT2A receptors): partial suppression
Result (suppression of psilocybin-induced head twitch) (5-HT2A receptors; [5]): Partial suppression of head twitch,
Result (suppression of psilocybin-induced head twitch) at high dose (5-HT2A receptors; psilocybin 2 mg/kg i.p., antagonist at high dose (4 mg/kg) i.v. at T=7 min, head twitches scored to 40 min): full suppression at high dose

N#Cc1c[nH]c2c(C(=O)N3CCN(CCc4ccc(F)cc4)CC3)cccc12 [pruvanserin]
effect on psilocybin-induced head-twitch response (5-HT2A receptors; [3]): completely suppressed
effect on psilocybin-induced head twitch, summary of Examples 13-21 (5-HT2A receptors): full ending
Result (suppression of psilocybin-induced head twitch) (5-HT2A receptors; [5]): Full suppression of head twitch

CN(C)CCc1c[nH]c2cccc(OP(=O)(O)O)c12 [psilocybin]
hygroscopicity (in words) [1]: hygroscopic between 75-95% RH; also recorded: Hygroscopic above 75% RH:
solid form of the post-DVS specimen [1]: converted to a hydrate Form B; also recorded: a hydrated form of psilocybin resulted from water sorption between 75-95% RH; also recorded: Crystalline Form B (hydrate)

Cc1nc2sccn2c(=O)c1CCN1CCC(=C(c2ccc(F)cc2)c2ccc(F)cc2)CC1 [ritanserin]
effect on psilocybin-induced head-twitch response (5-HT2A receptors; [3]): completely suppressed
effect on psilocybin-induced head twitch, summary of Examples 13-21 (5-HT2A receptors): full ending
Result (suppression of psilocybin-induced head twitch) (5-HT2A receptors; [5]): Full suppression of head twitch

COc1cccc([C@H](O)C2CCN(CCc3ccc(F)cc3)CC2)c1OC [volinanserin]
effect on psilocybin-induced head-twitch response (5-HT2A receptors; [3]): completely suppressed
effect on psilocybin-induced head twitch, summary of Examples 13-21 (5-HT2A receptors): full ending
Result (suppression of psilocybin-induced head twitch) (5-HT2A receptors; [5]): Full suppression of head twitch

Maleate
Water uptake ([1]; 5-95% RH): ~0.8, 5-95%
Water uptake (25-65% RH) % [1]: ~0.3%
Water solubility ([2]; water): >50000 µg/mL
